# Assay results from patent US10443089B2, “Methods of multiplexing DNA sensors and localizing DNA sensor” (NATIONAL CENTRE FOR BIOLOGICAL SCIENCES (NCBS-TIFR), priority 2013, dated 2019).
# “Also recorded” adds a separate entry of the source.
# B1: clone C1: scFv recombinant antibody from phage display binding dsDNA sequence d(AT)4; SEQ ID No. 16 (protein)
# scFv: MAEVQLLESGGGLVQPGGSLRLSCAASGFTFSSYAMSWVRQAPGKGLEWVSTITKRGERTKYADSVKGRFTISRDNSKNTLYLQMNSLRAEDTAVYYCAKSTRAFDYWGQGTLVTVSSGGGGSGGGGSGGGGSTDIQMTQSPSSLSASVGDRVTITCRASQSISSYLNWYQQKPGKAPKLLIYGASYLQSGVPSRFSGSGSGTDFTLTISSLQPEDFATYYCQQTRFSPNTFGQGTKVEIKRAAAHHHHHHGAAEQKPISEEDLNGAAGGD
# modifications: scFv Protein Sequence; DNA_BIND (1)..(271)
# Tests used:
# [1] = Comparison of DNA pH sensors with pH sensitive organic dyes and GFP based probes; conditions: for Working regime: pH
# [2] = system: IA2.2 cells expressing scFv-furin; experiment: SimpHony of early and late endosomes with and without Dynasore; type: cell-based, Chinese Hamster
# Method: The DNA sensor of the present disclosure is applied to this system, by marking early endosomes with about 500 nM Tf-I^TfA488/A647 and late endosomes with about 500 nM I^FuA546/A647 in the presence and absence of Dynasore. I^n the absence of Dynasore, early endosomes undergo active fusion and fission; showing an average pH of about 6.05±0.07 (FIG. 17) while the late endosomes show an average pH of about 5.43±0.3.
# FIG. 17 depicts Dynasore mediated arrest of endosomal fission. Early/sorting and late endosomes in IA2.2 cells expressing scFv-furin are marked with about 500 nM Tf-I^TfA488/A647 at 37° C. for 10 min. Time lapse images of control cells (−Dy) where no dynasore is added, (+Dy) in presence of about 160 μM dynasore and (W) after dynasore is washed out and incubated for about 10 min at about 37° C. for recovery. Images are acquired with a time interval of about 2 s over 2 min period and compressed to a movie playing at 7 fps.
# [3] = system: scFv-furin expressing IA2.2 cells; experiment: SimpHony of early endosomes and TGN with and without Brefeldin A; type: cell-based, Chinese Hamster; conditions: BFA 20 μg/mL, 10 min
# Description: SimpHony is applied on BFA-induced tubules positive for furin marked by I^FuA546/A647 while simultaneously marking transferrin containing endosomes with Tf-I^TfA488/A647. BFA treated cells show tubular extensions emerging from compartments localize near the MTOC (FIG. 18a). Tf-I^TfA488/A647 in these cells occupies the excluded space of I^FuA546/A647 in the region around the MTOC in addition to a few cytoplasmic endosomes (FIG. 19b).
# FIG. 19 depicts localization of Tf-I^Tf and I^Fu DNA sensors in compartments after BFA treatment. scFv-Furin expressing IA2.2 cells are pulsed with about 500 nM I^FuA546/647 for 2 hours and chased for 30 min in presence of CHX followed by absence (a) or presence (b) of BFA (about 20 μg/mL) treatment of about 10 min at about 37° C. Cells are pulsed with about 500 nM Tf-I^TfA488/A647 in presence of BFA and CHX to label early endosomes. Arrowheads show MTOC. Scale Bar: 10 μm.
# FIG. 22 describes the pH heterogeneity of early endosomes and TGN, pre and post treatment with BFA. IA2.2 cells are pulsed with about 500 nM IFuA546/A647 for about 2 hours and chased for 30 min in presence of about 125 ug/ml CHX followed by absence or presence of BFA (about 20 μg/mL) treatment of about 10 min at about 37° C. Cells are further treated with about 500 nM Tf-ITfA488/A647 in presence of about 20 μg/mL BFA and about 125 ug/ml CHX to label early endosomes.
# 35 bp dsDNA tag, d(AT)4 = experiment: Competitive ELISA, binding affinity of purified scFv to immobilized dsDNA
# Method: The binding affinity of this scFv with the 35 bp DNA duplex is assayed using competitive ELISA that is performed using a fixed amount of immobilized dsDNA (25 pmoles) followed by the addition of a fixed concentration of scFv (200 nM) in the presence of an increasing concentration of unlabeled dsDNA (I^comp, about 10 nM to about 1 μM) in solution.
# This experiment is carried out to find strength of binding of clone C1 with DNA. The affinity and specificity of scFv is analyzed by ELISA after purifying the scFv. Streptavidin-coated 96-well plate is incubated with dsDNA epitope used for screening in 5×SSCT (about 75 mM Sodium citrate, about 750 mM NaCl, about 0.05% Tween-20) for about 1.5 hours for immobilization of dsDNA onto the Streptavidin-coated 96-well plate.
# For competition experiments, dsDNA immobilized onto Streptavidin-coated 96-well plate is incubated with the mixture of increasing amount of (from 0 to 10 micromoles) of competing nucleic acid, purified scFv (about 200-300 nM) and 1 in 1000 dilution of anti myc-tag antibody for about 1.5 hours at room temperature. […] Bound scFvs are detected by addition of 100 microliters of 2×TMB/H202 and OD at 450 nm is recorded and normalized with respect to the well where no competitor is added. […]
# [4] = system: DNA epitopes ssDNA, dsDNA, R1, R2, RM; experiment: ELISA screen of scFv clones for sequence specific binding to DNA epitopes; conditions: epitopes R1, R2, RM of the 35 bp dsDNA; listed as C1
# Method: The 35 bp dsDNA is divided into three regions: • (i) One region is composed of 13 bp of the antigen from the 3′ end (known as Region 1 (R1), FIG. 6a, red), • (ii) the second region corresponds to base pairs 16 to 28 from 3′ end (Region 2 (R2), FIG. 6a, green) and • (iii) the third region is an overlap of regions 1 and 2 (Region M (RM), FIG. 6a, blue).
# These three duplexes are annealed and then immobilized on three different 96-well plates. scFv supernatant of the same clones is added to the wells and incubated as described earlier. […] Thus, the scFvs corresponding to these clones recognize only the first 8 base pairs of the 35 bp dsDNA i.e., the sequence d(AT)4.
# In order to screen for sequence specificity of binding to duplex DNA, each of the selected clones are similarly assayed by ELISA to a set of surface-immobilized DNA scaffolds. These correspond to a single stranded DNA sequence comprising only the biotinylated strand of the 35 bp dsDNA the 35 bp dsDNA duplex (dsDNA), and three shorter duplex regions R1, R2 and RM corresponding to various sections on the 35 bp dsDNA duplex. R1 corresponds to a […] region at the 3′ terminus of the biotinylated ssDNA oligonucleotide, R2 correspond to a 13 bp region abutting R1, while RM corresponded to a 13 bp region overlapping the 5′ end of R1 and the 3′ of R2. […]
molecule,measurement,setting,value
O=C1OC2(c3cc(F)c(O)cc3Oc3cc(O)c(F)cc32)c2ccccc21 [Oregon green 488],pKa,[1],4.7
same,Working regime,[1],4.0-5.0
O=C(N/N=C/c1ccc(O)c(O)c1)c1cc2ccccc2cc1O [Dynasore],average pH of early endosomes after wash out,[2]; Dynasore washed out,completely restored
same,early endosome morphology and dynamics,[2]; presence of 160 μM dynasore,extensive tubulation of the early endosomes as well as their arrested dynamics
C[C@H]1CCC/C=C/[C@@H]2C[C@H](O)C[C@H]2[C@H](O)/C=C/C(=O)O1 [Brefeldin A],morphology of furin containing compartments,[3],tubulate extensively
Fluorescein (FITC),Working regime,[1],5-8
B1,relative binding constant,"35 bp dsDNA tag, d(AT)4; 25 pmoles immobilized dsDNA, 200 nM scFv, competitor I^comp 10 nM to 1 μM",about 1.25×10^7 M^−1
same,Kd,"35 bp dsDNA tag, d(AT)4; 35 bp DNA duplex / d(AT)4",80 nM
same,DNA epitope specificity by ELISA,[4],binding to R1 and no other region; also recorded: binds a DNA sequence ATATATAT
